By ΔTm is commonly meant the shift of the melting midpoint relative to a reference.

Among the data in article PMC5539802 (2014) are binding and ΔTm values, retold here.

Experiment [1] relates to PS2.M (DNA, G4) GTGGGTAGGGCGGGTTGG
The experiment is described as follows: luminescence enhancement. The note with it: 100 mM K+ (annealing); 1 μM complex, 5 μM DNA; 20 mM Tris-HCl pH 7.0.

The subject of experiment [2] is ON1-ON2 duplex substrate (DNA, duplex) GTGGGTAGGGCGGGTTGGTGGCGACGGCAGCGAGGCAGAGGAGCAGAGGGAGCA/GCCTCGCTGCCGTCGCCACCAACCCGCCC
The experiment is described as follows: luminescence enhancement. The note with it: 20 mM K+, 150 mM NH4+; 20 mM Tris pH 7.2; 1 μM complex; duplex without helicase unwinding.

Experiment [3] relates to F21T (DNA, G4) GGGTTAGGGTTAGGGTTAGGG
Kind of experiment: FRET melting. The note with it: 100 mM K+; potassium cacodylate pH 7.0; 200 nM DNA; complex concentration not in material.

In experiment [4] the test system is ON1 (DNA, G4) GTGGGTAGGGCGGGTTGGTGGCGACGGCAGCGAGGCAGAGGAGCAGAGGGAGCA
Kind of experiment: luminescence enhancement. The note with it: 20 mM K+, 150 mM NH4+; 20 mM Tris pH 7.2; 1 μM complex; G-quadruplex released by helicase unwinding of ON1-ON2.

Experiment [5] has as its system F10T (DNA, hairpin, hexaethylene glycol (HEG) linker between nucleotides 8 and 9) TATAGCTATATAGCTATAT
The experiment is described as follows: FRET melting. The note with it: 10 mM Li+; lithium cacodylate pH 7.4; same complex concentration as F21T.

Experiment [6] relates to ds17 (DNA, duplex) CCAGTTCGTAGTAACCC/GGGTTACTACGAACTGG
Kind of experiment: G4-FID thiazole orange displacement. The note with it: Tris-HCl buffer; thiazole orange 0.5 μM displaced; less effective than for Pu27.

In the case of `Clc1cc2cccnc2c2ncccc12.[Ir+3].[c-]1ccccc1-c1ccc2ccccc2n1.[c-]1ccccc1-c1ccc2ccccc2n1`, the binding result in experiment [1] was “yes”.

As for `[Ir+3].[c-]1ccccc1-c1ccc2ccccc2n1.[c-]1ccccc1-c1ccc2ccccc2n1.c1cnc2c(c1)ccc1cccnc12`, the binding entry in experiment [2] was “weak”; in experiment [4] it was “yes”; in experiment [6], “weak”; in experiment [1], “yes”. Besides, the ΔTm was ~ 13 °C in experiment [3] and 4 °C in experiment [5].
